One data set concerns S. mutans biofilm. Put plainly: S. mutans biofilm formation inhibition. The data set is classed as cell-based. Conditions: for MBIC50: S. mutans biofilm formation.
Data set [1] concerns S.aureus MRSA 33592 biofilm. Put plainly: Biofilm formation of MRSA 33592, cannabinoid alone and combined with antibiotic (MBIC/FBIC/FBICI). The data set is classed as cell-based. Particulars: for MBIC METH: methicillin alone; for MBIC AMP: ampicillin alone.
The subject of another data set is S.aureus MRSA 33592. The data set can be described thus: Growth of MRSA 33592, cannabinoid alone and combined with antibiotic (MIC/FIC/FICI). Format: cell-based. Conditions: MRSA 33592 growth; for MIC METH: methicillin alone; for MIC AMP: ampicillin alone.
In data set [2] the test system is C. albicans biofilm. The data set can be described thus: MTT assay of C. albicans biofilm. The data set is classed as cell-based. The protocol: To investigate the effect of the agents on preformed biofilms, biofilms were allowed to mature in for 24 h at 37° C. in a 6-well plate. The biofilms were washed twice with PBS. The active agents were then applied. The plates were further incubated for 24 h at 37° C. The amounts of biofilms, were determined quantitatively using a standard MTT reduction assay as described previously. Briefly, biofilms were overlaid with […] of 3-(4,5-dimethyl-2-thiazolyl)-2,5-diphenyl-2H-tetrazolium bromide (MTT) and incubated for 2 h at 37° C. Under these conditions, the lightly yellowish MTT was reduced to a blue tetrazolium salt accumulated within the metabolic active biofilms. The stain was then dissolved in DMSO and the absorbance value was measured at 570 nm. The accumulation of tetrazolium salt by the reduction of MTT is proportional to the number of viable cells growing in biofilm. Prior to dissolving in DMSO, biofilms were photographed and visualized. Assay was performed in triplicate.

For another data set, the system named is P. aeruginosa biofilm. Put plainly: CLSM of treated P. aeruginosa biofilm.
In data set [3] the test system is fluconazole resistant C. albicans strains. The data set is classed as cell-based. Conditions: each agent alone or in combination; data not shown.
In another data set the test system is S. aureus MRSA 24433. Put plainly: Growth of MRSA 24433, cannabinoid alone and combined with antibiotic (MIC/FIC/FICI). The data set is classed as cell-based. Particulars: for FIC METH / MIC METH: MRSA 24433 growth; for MIC METH: methicillin alone.
The subject of another data set is S.aureus MRSA 43300. The data set can be described thus: Growth of MRSA 43300, cannabinoid alone and combined with antibiotic (MIC/FIC/FICI). Format: cell-based. Particulars: MRSA 43300 growth; for MIC METH: methicillin alone; for MIC AMP: ampicillin alone.
Data set [4] deals with S.aureus MRSA 43300 biofilm. The data set can be described thus: Biofilm formation of MRSA 43300, cannabinoid alone and combined with antibiotic (MBIC/FBIC/FBICI). Particulars: for MBIC METH: methicillin alone; for MBIC AMP: ampicillin alone. The data set is classed as cell-based.
In data set [5] the test system is S. aureus MRSA 24433 biofilm. Put plainly: Biofilm formation of MRSA 24433, cannabinoid alone and combined with antibiotic (MBIC/FBIC/FBICI). The data set is classed as cell-based. Particulars: for MBIC METH: methicillin alone.
Data set [6] deals with mixed S. mutans-C. albicans. Put plainly: Growth of C. albicans-S. mutans co-culture. The data set is classed as cell-based. Conditions: all tested doses.
For the next data set, the system named is C. albicans. Put plainly: C. albicans growth (MIC). The data set is classed as cell-based. Conditions: single C. albicans growth; highest tested dose 64 μg/ml.
Data set [7] has as its system C. albicans biofilm. Put plainly: Microscopic observation of fungal morphology in biofilm. Format: cell-based.
For data set [8], the system named is mixed C. albicans-S. mutans biofilm. The data set can be described thus: Co-species C. albicans-S. mutans biofilm formation inhibition. The data set is classed as cell-based.
The subject of data set [9] is C. albicans biofilm. The data set can be described thus: Flow cytometry analysis of viable cells in fungal biofilm. Particulars: for granularity: control 136 AU; for cell size: control 260 AU. The data set is classed as cell-based.
The subject of a further data set is S. mutans. The data set can be described thus: S. mutans growth (MIC). The data set is classed as cell-based. Particulars: single S. mutans growth.
The test system of data set [10] is C. albicans biofilm. The data set can be described thus: C. albicans biofilm formation inhibition. Format: cell-based.

These results are taken from patent US20210379010A1, “COMPOSITIONS COMPRISING CANNABINOIDS FOR USE IN THE TREATMENT OF BIOFILM AND CONDITIONS ASSOCIATED WITH MICROBIAL, FUNGAL, BACTERIAL INFECTIONS” (Yissum Research Development Company of The Hebrew …, priority 2018, published 2021).

Values after ≈ are worked out from the molar mass of the structure shown. Some results are limits rather than exact numbers.

As for `CCCCCCCC/C=C\CCCCCCCC(=O)NCCO` [OEA, oleoyl ethanolamide], in the data set on S. mutans biofilm, the MBIC50 amounted to 64 µg/mL.
Regarding gentamycin [reference compound], the “FBIC GEN” value is 8 in [1] (MBIC of gentamicin in combination with AEA, Table 7) and 4 in data set [1] (MBIC of gentamycin in combination with ARAS, Table 4). The “MBIC GEN” value in data set [1] (gentamicin alone, Table 7) amounted to 128; in [1] (gentamycin alone, Table 4) it was 128. Moreover, the “decrease of MIC in combination” value with S.aureus MRSA 33592 (AEA with gentamicin vs agent alone) was found to be 32 fold. Further, the “FIC GEN” value in the data set with S.aureus MRSA 33592 (MIC of gentamicin in combination with AEA, Table 7) is recorded as 4; with S.aureus MRSA 33592 (MIC of gentamycin in combination with ARAS, Table 4), 4. Also, the MIC GEN with S.aureus MRSA 33592 (gentamicin alone, Table 7) is 128 µg/mL; with S.aureus MRSA 33592 (gentamycin alone, Table 4), 128 µg/mL.
In the case of `CCCCC/C=C\C/C=C\C/C=C\C/C=C\CCCC(=O)OC(CO)CO` [2-AG, 2-arachidonoyl glycerol], the “C. albicans biofilm formation (MTT assay)” value in the data set with C. albicans biofilm [2] was “dose-dependent inhibition”.
As for `CCCCCCCCCCCCCCCC(=O)NCCO` [PEA, palmitoyl ethanolamide], in the data set on P. aeruginosa biofilm, the “layers/depth of P. aeruginosa biofilm” value is “reduced layers/depth of biofilm”.
With `OC(Cn1cncn1)(Cn1cncn1)c1ccc(F)cc1F` [FLU, fluconazole, reference compound], the “growth of fluconazole resistant fungal strains” value in [3] is given as “not affected”.
With `COc1cccc(OC)c1C(=O)N[C@@H]1C(=O)N2[C@@H]1SC(C)(C)[C@@H]2C(=O)O` [METH, methicillin, reference compound], the “FIC METH” value was 16 µg/mL in the data set with S. aureus MRSA 24433 (MIC of methicillin in combination with AEA, Table 1); 16 with S. aureus MRSA 24433 (MIC of methicillin in combination with AEA, Table 6B); greater than 64 in the data set with S. aureus MRSA 24433 (MIC of methicillin in combination with ARAS, Table 3B); 8 with S.aureus MRSA 43300 (MIC of methicillin in combination with AEA, Table 6C); 2 in the data set with S.aureus MRSA 43300 (MIC of methicillin in combination with ARAS, Table 3C); 16 in the data set on S.aureus MRSA 33592 (MIC of methicillin in combination with AEA, Table 6A). The “FIC METH” value in the data set on S.aureus MRSA 33592 (MIC of methicillin in combination with ARAS, Table 3A) is 8. Besides, the “MIC METH” value was greater than 64 µg/mL in the data set with S. aureus MRSA 24433 (Table 1); greater than 64 µg/mL in the data set with S. aureus MRSA 24433 (Table 3B); greater than 64 µg/mL in the data set on S. aureus MRSA 24433 (Table 6B); 32 µg/mL in the data set on S.aureus MRSA 43300 (Table 3C); 32 µg/mL in the data set with S.aureus MRSA 43300 (Table 6C); 32 µg/mL in the data set with S.aureus MRSA 33592 (Table 3A). For the same compound, the MIC METH in the data set on S.aureus MRSA 33592 (Table 6A) was determined as 32 µg/mL. Also, the minimum inhibitory concentration (MIC) in the data set with S. aureus MRSA 24433 (Staphylococcus aureus, MRSA, read-out: MIC METH) was greater than 64 µg/mL. The “FBIC METH” value in data set [1] (MBIC of methicillin in combination with AEA, Table 6A) came to 8; in data set [1] (MBIC of methicillin in combination with ARAS, Table 3A) it was 8; in data set [4] (MBIC of methicillin in combination with AEA, Table 6C), 8; in [4] (MBIC of methicillin in combination with ARAS, Table 3C), 8; in data set [5] (MBIC of methicillin in combination with AEA, Table 1) it was 16 µg/mL; in [5] (MBIC of methicillin in combination with AEA, Table 6B), 16. The “FBIC METH” value in data set [5] (MBIC of methicillin in combination with ARAS, Table 3B) was 16. The “MBIC METH” value in data set [1] (Table 3A) was 32; in data set [1] (Table 6A), 32; in data set [4] (Table 3C), 32; in data set [4] (Table 6C) it was 32; in [5] (Table 1), greater than 64 µg/mL; in [5] (Table 3B), greater than 64. Further, the “MBIC METH” value in data set [5] (Table 6B) is reported as greater than 64.
With `CCCCCCC(C)(C)c1cc(O)c2c(c1)OC(C)(C)[C@@H]1CC=C(CO)C[C@@H]21` [HU210, 1,1-Dimethylheptyl-11-hydroxy-tetrahydrocannabinol], the growth of co-culture entry in [6] is “not affected”. Further, the “MIC, fungal growth” value against C. albicans is “not detected at tested doses”. In the data set on C. albicans biofilm [7] (8 μg/ml), the “fungal morphology in biofilm” value is recorded as “influenced fungal morphology”. Besides, the yeast-to-hyphae transition entry in the data set with C. albicans biofilm [7] (64 μg/ml) is given as “appearance of mainly yeast form of C. albicans”. The “density of fungal mycelium” value with C. albicans biofilm [7] (increasing doses up to 64 μg/ml) is reported as “decreased dose-dependently”. Besides, in data set [8], the MBIC50 is 4 µg/mL. For the same compound, in the data set on C. albicans biofilm [9] (8 μg/ml), the granularity was found to be 50 AU and the cell size was determined as 110 AU. Moreover, the “viable C. albicans cells in biofilm” value with C. albicans biofilm [9] (8 μg/ml, untreated control 88%) is reported as 20%. In the data set on C. albicans biofilm [9] (64 μg/ml), the “viable cells in fungal biofilm” value was “totally reduced viable cells”, the granularity was 40 AU and the cell size turned out to be 100 AU. Besides, in the data set with S. mutans biofilm (HU210 2 μg/ml), the streptococcal biofilm formation result is “No streptococcal biofilm was formed”. The same compound showed an MIC against S. mutans of 2 µg/mL (≈ 5.17 µM). In addition, in the data set with C. albicans biofilm [10] (HU210 64 μg/ml), the “biofilm formation at highest tested dose” value is recorded as “Almost no biofilm formed”. Moreover, the “MBIC50 (minimal biofilm inhibitory concentration 50, 50% of biofilm inhibition)” value with C. albicans biofilm [10] (single C. albicans biofilm formation) was determined as 2 µg/mL.
Take `CC1(C)S[C@@H]2[C@H](NC(=O)[C@H](N)c3ccccc3)C(=O)N2[C@H]1C(=O)O` [AMP, ampicillin, reference compound]: the “FIC AMP” value in the data set on S.aureus MRSA 43300 (MIC of ampicillin in combination with AEA, Table 8B) worked out at 8; with S.aureus MRSA 43300 (MIC of ampicillin in combination with ARAS, Table 5B), 16; in the data set with S.aureus MRSA 33592 (MIC of ampicillin in combination with AEA, Table 8A), 8; in the data set with S.aureus MRSA 33592 (MIC of ampicillin in combination with ARAS, Table 5A) it was 64. Also, the MIC AMP is 256 µg/mL in the data set on S.aureus MRSA 43300 (Table 5B), greater than 128 µg/mL in the data set with S.aureus MRSA 43300 (Table 8B), 128 µg/mL in the data set with S.aureus MRSA 33592 (Table 5A) and 128 µg/mL with S.aureus MRSA 33592 (Table 8A). Besides, the “FBIC AMP” value is 8 in data set [1] (MBIC of ampicillin in combination with AEA, Table 8A); 32 in [1] (MBIC of ampicillin in combination with ARAS, Table 5A); 8 in data set [4] (MBIC of ampicillin in combination with AEA, Table 8B); 64 in data set [4] (MBIC of ampicillin in combination with ARAS, Table 5B). Further, the “MBIC AMP” value is reported as 128 in [1] (Table 5A), 128 in data set [1] (Table 8A), 256 in data set [4] (Table 5B) and greater than 128 in data set [4] (Table 8B).
In the data set on S. mutans biofilm, `CCCCCCCC/C=C\CCCCCCCC(=O)NCC(=O)O` [OG, oleoyl glycine] showed an MBIC50 of 32 µg/mL.
Consider `CCCCCCCC/C=C\CCCCCCCC(=O)N[C@@H](C)C(=O)O` [OA, oleoyl alanine], for which the MBIC50 with S. mutans biofilm amounted to 16 µg/mL.
